Molecular target: S1P3 receptor (Homo sapiens, UniProt Q99500)
Assay: GTP γ35S binding assay, antagonist mode
Assay type: biochemical
Conditions: for IC50: antagonist assay, reaction mixture contained 10 nM S1P, membranes, read-out: S1P3 GTPγ^35S IC50
Description: B. Novel compounds were synthesized and tested for S1P3 activity using the GTP γ^35S binding assay. GTP γ^35S binding was measured in the medium containing (mM) HEPES 25, pH 7.4, MgCl2 10, NaCl 100, dithiothreitol 0.5, digitonin 0.003%, 0.2 nM GTP γ^35S, and 5 μg membrane protein in a volume of 150 μl. Test compounds were included in the concentration range from 0.08 to 5,000 nM unless indicated otherwise. Membranes were incubated with 100 μM 5′-adenylylimmidodiphosphate for 30 min, and subsequently with 10 μM GDP for 10 min on ice. Drug solutions and membrane were mixed, and then reactions were initiated by adding GTP γ^35S and continued for 30 min at 25° C. Reaction mixtures were filtered over Whatman GF/B filters under vacuum, and washed three times with 3 mL of ice-cold buffer (HEPES 25, pH7.4, MgCl2 10 and NaCl 100). Filters were dried and mixed with scintillant, and counted for ^35S activity using a β-counter. Agonist-induced GTP γ^35S binding was obtained by subtracting that in the absence of agonist. Binding data were analyzed using a non-linear regression method. In case of antagonist assay, the reaction mixture contained 10 nM S1P in the presence of test antagonist at concentrations ranging from 0.08 to 5000 nM.

Sequence of S1P3 receptor (Q99500 whole entry): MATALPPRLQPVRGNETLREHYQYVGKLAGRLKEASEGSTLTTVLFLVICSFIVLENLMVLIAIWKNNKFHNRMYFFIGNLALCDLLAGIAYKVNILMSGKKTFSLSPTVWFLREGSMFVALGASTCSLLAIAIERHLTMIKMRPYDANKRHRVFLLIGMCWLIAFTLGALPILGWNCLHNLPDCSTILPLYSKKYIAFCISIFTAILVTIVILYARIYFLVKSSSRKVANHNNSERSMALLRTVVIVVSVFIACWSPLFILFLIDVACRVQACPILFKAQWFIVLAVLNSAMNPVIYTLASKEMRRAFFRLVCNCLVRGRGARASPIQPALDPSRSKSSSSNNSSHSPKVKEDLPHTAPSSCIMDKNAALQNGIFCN

Compound | IC50 | activity of separated enantiomer (enantiomers of Compound-28 separated by chiral HPLC, assay not stated)
CC1CCC(NC(NC(=O)c2ccc(Br)cc2)C(Cl)(Cl)Cl)CC1 (single isomer, unassigned) [Compound-49, 4-bromo-N-(2,2,2-trichloro-1-(4-methylcyclohexylamino)ethyl)benzamide] | 671 nM | 
O=C(NC(Nc1ccc(Cl)cc1)C(F)(F)C(F)(F)C(F)(F)C(F)(F)F)c1ccc(Br)cn1 (stereo not drawn) [Compound-29] | 5.5 nM | 
O=C(NC(Nc1ccc(Cl)cc1)C(F)(F)C(F)(F)F)c1ccc(Br)cn1 (single isomer, unassigned; (-)) [Compound-32, (−)-5-bromo-N-(1-(4-chlorophenylamino)-2,2,3,3,3-pentafluoropropyl)picolinamide] | 1.3 nM | active enantiomer
CCC(Cl)(Cl)C(NC(=O)c1ccc(Br)cn1)Nc1ccc(Cl)cc1 (stereo not drawn) [Compound-27, 5-Bromo-N-(2,2-dichloro-1-(4-chlorophenylamino)butyl)picolinamide] | 56 nM | 
O=C(NC(Nc1cnc(Cl)nc1)C(F)(F)C(F)(F)C(F)(F)C(F)(F)C(F)(F)C(F)F)c1ccc(Br)cn1 (stereo not drawn) [Compound-37, 5-Bromo-N-(1-(2-chloropyrimidin-5-ylamino)-2,2,3,3,4,4,5,5,6,6,7,7-dodecafluoroheptyl)picolinamide] | 59 nM | 
O=C(NC(Nc1cnc(Cl)nc1)C(F)(F)C(F)(F)F)c1ccc(Br)cn1 (stereo not drawn) [Compound-35, 5-Bromo-N-(1-(2-chloropyrimidin-5-ylamino)-2,2,3,3,3-pentafluoropropyl)picolinamide] | 2 nM | 

More lines, now with the values ahead:

IC50 | activity of separated enantiomer (enantiomers of Compound-28 separated by chiral HPLC, assay not stated) | Compound
31 nM |  | O=C(NC(Nc1ccc(Cl)cc1)C(=O)c1ccc2ccccc2c1)c1ccc(Br)cn1 (stereo not drawn) [Compound-2, 5-bromo-N-(1-(4-chlorophenylamino)-2-(naphthalen-2-yl)-2-oxoethyl)picolinamide]
5.2 nM |  | COc1cccc(C(=O)C(NC(=O)c2ccc(Br)cn2)Nc2ccc(Cl)cc2)c1 (stereo not drawn) [Compound-3, 5-bromo-N-(1-(4-chlorophenylamino)-2-(3-methoxyphenyl)-2-oxoethyl)picolinamide]
4.7 nM |  | O=C(NC(Nc1ccc(Cl)cc1)c1cc2ccccc2o1)c1ccc(Br)cn1 (stereo not drawn) [Compound-10, N-(benzofuran-2-yl(4-chlorophenylamino)methyl)-5-bromopicolinamide]
10 nM |  | O=C(NC(Nc1ccc(Cl)cc1)C(=O)c1cccc2ccccc12)c1ccc(Br)cn1 (stereo not drawn) [Compound-1, 5-bromo-N-(1-(4-chlorophenylamino)-2-(naphthalen-1-yl)-2-oxoethyl)picolinamide]
115 nM |  | O=C(NC(Nc1ccc(Cl)cc1)c1ccc(Cl)cc1)c1ccc(Br)cn1 (stereo not drawn) [Compound-7, 5-Bromo-N-((4-chlorophenyl)(4-chlorophenylamino)methyl)picolinamide]
